The text below walks through data of patent US6316411A, “Protection against ischemia and reperfusion injury” (University of Kentucky Research Foundation, priority 2000, dated 2001).

Molecules are shown by their SMILES.

Test [1] deals with mouse vas deferens. The test is described as follows: Mouse vas deferens (m.v.d.) contractility assay. The conditions noted are these: FIG. 8; 6000 nM glibenclamide with 1000 nM compound-D. As to the method: Glibenclamide, a KATP channel blocker, blocked the inhibition of contraction of mouse vas deferens induced by compound-D SEQ ID NO:1. With reference to FIG. 8, the effect of administration of 1000 nM compound-D SEQ ID NO:1 alone (open bar) versus 1000 nM compound-D SEQ ID NO:1 with 6000 nM glibenclamide (hatched bar) on contractility of mouse vas deferens (m.v.d.) (n=6) is shown. […] (n=2).

Test [2] concerns isolated rat hearts. The test is described as follows: Isolated perfused rat heart (Langendorff), 20 min global ischemia and 120 min reperfusion after 24 h pretreatment. It is filed as in vivo. The note with it: FIG. 7, pretreated 24 h prior to ischemia, compound-D 2.0 mg/kg and/or naltrexone 3 mg/kg, 20 min ischemia, control about 27%. As to the method:
Compound-D SEQ ID NO:1, at a dose of 2 mg/kg and solubilized as described above, was administered by tail vein injection into rats weighing between about 350-400 g (number of animals (n)=6). Control rats (n=6) were injected in the same manner with an equal volume of 0.9% NaCI. After 24 h, the hearts from both treated and control animals were excised and perfused in a modified Langendorff perfusion apparatus at 37° C. using oxygenated Krebs-Henseleit buffer as the perfusate, as known to one skilled in the art. Coronary perfusion pressure was maintained at 70 mm Hg by regulating coronary flow. All hearts were paced at […] (300 beats per minute, bpm) except during ischemia. A saline-filled balloon was inserted in the left ventricle to measure developed pressure (DP) and end-diastolic pressure (EDP) in mm Hg. After 15 min equilibration, both groups were subjected to 20 min zero-flow global ischemia, and then were reperfused for 120 min.
Left ventricles were isolated and divided into three segments along their short axis, stained with triphenyltetrazolium chloride, and stored in formalin. Infarct size was measured on digitized images and expressed as a per centage of myocardium. Data were expressed as mean plus or minus standard error of the mean (±SEM) and were analyze using a […] Student's t-Test. Confidence limits were established at 95%. […]

`COc1ccc(Cl)cc1C(=O)NCCc1ccc(S(=O)(=O)NC(=O)NC2CCCCC2)cc1` [Glibenclamide]: the “effect of glibenclamide on compound-D suppressed m.v.d. contractions” value in test [1] is “restored m.v.d. contractions”.

Turning to `O=C1CC[C@@]2(O)[C@H]3Cc4ccc(O)c5c4[C@@]2(CCN3CC2CC2)[C@H]1O5` [naltrexone], the infarct size entry in test [2] is “about 14.5%”.
